Laboratory results reported in ChEMBL document CHEMBL1125092, “Nonneurotoxic tetralin and indan analogues of 3,4-(methylenedioxy)amphetamine (MDA)” (J Med Chem, 1990).

Key:
Rattus norvegicus [1] = assay: Tested for stimulus generation in rats trained to discriminate LSD from saline at a dose 2.34 (umol/kg) (number of animals = 10); assay type: functional
Rattus norvegicus [2] = assay: Monoamine levels in rat brain were evaluated after subcutaneous administration of 40 mg/kg for 5-HT; assay type: functional
Rattus norvegicus [3] = assay: Percentage of animals disrupted was determined in groups of MDMA trained rats at a dose 9.36 (uM/kg), (no.of animals=10); assay type: functional
Rattus norvegicus [4] = assay: Percentage of animals disrupted was determined in groups of LSD trained rats at a dose of 4.68(uM/kg) (no. of animals = 15); assay type: functional
Rattus norvegicus [5] = assay: Monoamine levels in rat hippocampus were evaluated after subcutaneous administration of 40 mg/kg for 5-HT; assay type: functional
Rattus norvegicus [6] = assay: Hallucinogenic property was determined in groups of LSD trained rats and percentage of animals disrupted was reported at a dose 0.59(uM/kg), (number of animals = 11); assay type: functional
Rattus norvegicus [7] = assay: Tested for stimulus generation in rats trained to discriminate +/-MDMA from saline at 1.17 (umol/kg), (number of animals = 8); assay type: functional
Rattus norvegicus [8] = assay: Percentage of animals disrupted was determined in groups of LSD trained rats at a dose of 1.17(uM/kg)(no. of animals =16); assay type: functional
[9] = target: T1, Sodium-dependent serotonin transporter (Rattus norvegicus, UniProt P31652); assay: Binding affinity was determined towards serotonin uptake site in presence of [3H]paroxetine radioligand in rat hippocampal homogenate; assay type: tissue-based, Hippocampus
T1 sequence (P31652 whole entry): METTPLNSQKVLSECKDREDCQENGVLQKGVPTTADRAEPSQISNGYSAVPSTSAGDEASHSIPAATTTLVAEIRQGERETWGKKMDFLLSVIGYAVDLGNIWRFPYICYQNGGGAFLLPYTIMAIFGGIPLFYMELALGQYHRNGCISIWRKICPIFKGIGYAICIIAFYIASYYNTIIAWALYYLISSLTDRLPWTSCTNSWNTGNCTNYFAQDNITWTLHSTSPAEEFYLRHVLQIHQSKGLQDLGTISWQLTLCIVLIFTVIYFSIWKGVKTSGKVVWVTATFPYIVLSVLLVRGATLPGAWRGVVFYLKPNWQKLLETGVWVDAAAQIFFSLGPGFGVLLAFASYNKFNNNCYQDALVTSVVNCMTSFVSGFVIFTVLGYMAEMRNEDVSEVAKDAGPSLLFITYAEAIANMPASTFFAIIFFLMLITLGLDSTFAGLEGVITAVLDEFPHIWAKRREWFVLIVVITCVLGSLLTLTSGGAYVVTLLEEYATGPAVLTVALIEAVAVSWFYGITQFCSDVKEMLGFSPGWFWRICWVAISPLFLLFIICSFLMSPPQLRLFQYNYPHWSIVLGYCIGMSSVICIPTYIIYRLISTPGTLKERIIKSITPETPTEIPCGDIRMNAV

Rattus norvegicus [10] = assay: Monoamine levels in rat brain were evaluated after subcutaneous administration of 40 mg/kg for HVA; assay type: functional
Rattus norvegicus [11] = assay: Percentage of animals disrupted was determined in groups of MDMA trained rats at a dose 2.34 (uM/kg), (no.of animals=10); assay type: functional
Rattus norvegicus [12] = assay: Monoamine levels in rat brain were evaluated after subcutaneous administration of 40 mg/kg for DA; assay type: functional
Rattus norvegicus [13] = assay: Hallucinogenic property was determined in groups of MDMA trained rats and percentage of animals disrupted was reported at a dose 1.17 (umol/kg), (number of animals = 8); assay type: functional
Rattus norvegicus [14] = assay: Percentage of animals disrupted was determined in groups of LSD trained rats at a dose of 2.34(uM/kg) (no. of animals = 10); assay type: functional
Rattus norvegicus [15] = assay: Monoamine levels in rat brain were evaluated after subcutaneous administration of 40 mg/kg for NE; assay type: functional
Rattus norvegicus [16] = assay: Monoamine levels in rat brain were evaluated after subcutaneous administration of 40 mg/kg for 5-HIAA; assay type: functional
Rattus norvegicus [17] = assay: Tested for stimulus generation in rats trained to discriminate +/-MDMA from saline at 9.36 (umol/kg), (number of animals = 10); assay type: functional
Rattus norvegicus [18] = assay: Tested for stimulus generation in rats trained to discriminate LSD from saline at a dose 4.68 (umol/kg),(number of animals = 15); assay type: functional
[19] = target: T1, Sodium-dependent serotonin transporter; assay: Binding affinity was determined towards serotonin uptake site in presence of [3H]paroxetine radioligand in rat brain cortical homogenate; assay type: tissue-based
Rattus norvegicus [20] = assay: Tested for stimulus generation in rats trained to discriminate +/-MDMA from saline at 2.34 (umol/kg), (number of animals = 10); assay type: functional
Rattus norvegicus [21] = assay: Monoamine levels in rat hippocampus were evaluated after subcutaneous administration of 40 mg/kg for 5-HIAA; assay type: functional
Rattus norvegicus [22] = assay: Monoamine levels in at hippocampus were evaluated after subcutaneous administration of 40 mg/kg for NE; assay type: functional
Rattus norvegicus [23] = assay: Tested for stimulus generation in rats trained to discriminate LSD from saline at a dose 0.59(uM/kg), (number of animals = 11); assay type: functional
Rattus norvegicus [24] = assay: Tested for stimulus generation in rats trained to discriminate +/-MDMA from saline at 4.68 (umol/kg), (number of animals = 8); assay type: functional
Rattus norvegicus [25] = assay: Monoamine levels in rat brain were evaluated after subcutaneous administration of 40 mg/kg for DOPAC; assay type: functional
Rattus norvegicus [26] = assay: Percentage of animals disrupted was determined in groups of LSD trained rats at a dose of 9.36(uM/kg) (no. of animals =6); assay type: functional
Rattus norvegicus [27] = species: Rattus norvegicus; assay: Bmax for compound was evaluated in rat cortical homogenate; assay type: tissue-based
Rattus norvegicus [28] = assay: Percentage of animals disrupted was determined in groups of MDMA trained rats at a dose 4.68 (uM/kg), (no.of animals=8); assay type: functional
Rattus norvegicus [29] = assay: Tested for stimulus generation in rats trained to discriminate LSD from saline at a dose 1.17 (umol/kg) (number of animals =16); assay type: functional
Rattus norvegicus [30] = species: Rattus norvegicus; assay: Bmax for compound was evaluated in rat hippocampal homogenate; assay type: tissue-based; conditions: Hippocampus

Q: `NC1Cc2cc3c(cc2C1)OCO3` was tested. Which SDL (Rattus norvegicus [1]) did it give?
A: 38%

Q: What about the Monoamine level (Rattus norvegicus [2]) of the same molecule?
A: 330 pg/mg

Q: And the D (Rattus norvegicus [3])?
A: 10%

Q: And the D (Rattus norvegicus [4])?
A: 47%

Q: What about the Monoamine level (Rattus norvegicus [5]) of the same molecule?
A: 273 pg/mg

Q: And the D (Rattus norvegicus [6])?
A: 27%

Q: And the SDL (Rattus norvegicus [7])?
A: 13%

Q: What about the D (Rattus norvegicus [8]) of the same molecule?
A: 50%

Q: And the Kd [9]?
A: 0.127 nM

Q: And the Monoamine level (Rattus norvegicus [10])?
A: 193 pg/mg

Q: What about the D (Rattus norvegicus [11]) of the same molecule?
A: 20%

Q: What about the Monoamine level (Rattus norvegicus [12]) of the same molecule?
A: 130 pg/mg

Q: And the D (Rattus norvegicus [13])?
A: 0%

Q: And the D (Rattus norvegicus [14])?
A: 20%

Q: What about the Monoamine level (Rattus norvegicus [15]) of the same molecule?
A: 395 pg/mg

Q: And the Monoamine level (Rattus norvegicus [16])?
A: 329 pg/mg

Q: And the SDL (Rattus norvegicus [17])?
A: 100%

Q: And the SDL (Rattus norvegicus [18])?
A: 25%

Q: What about the Kd [19] of the same molecule?
A: 0.104 nM

Q: What about the SDL (Rattus norvegicus [20]) of the same molecule?
A: 50%

Q: What about the Monoamine level (Rattus norvegicus [21]) of the same molecule?
A: 473 pg/mg

Q: What about the Monoamine level (Rattus norvegicus [22]) of the same molecule?
A: 459 pg/mg

Q: And the SDL (Rattus norvegicus [23])?
A: 13%

Q: What about the SDL (Rattus norvegicus [24]) of the same molecule?
A: 63%

Q: What about the Monoamine level (Rattus norvegicus [25]) of the same molecule?
A: 187 pg/mg

Q: What about the D (Rattus norvegicus [26]) of the same molecule?
A: 91%

Q: What about the Bmax (Rattus norvegicus [27]) of the same molecule?
A: 918 fM/g

Q: What about the D (Rattus norvegicus [28]) of the same molecule?
A: 0%

Q: What about the SDL (Rattus norvegicus [29]) of the same molecule?
A: 50%

Q: What about the Bmax (Rattus norvegicus [30]) of the same molecule?
A: 675 fM/g
